Experimental data reported in patent US20020164333A1, “Bifunctional molecules and vectors complexed therewith for targeted gene delivery” (The Scripps Research Institute, priority 2000, published 2002).

Tested on: M21-L12 melanoma cells
Test: Ad-mediated gene delivery after pretreatment of cells with PI3K inhibitors
Format: cell-based, human
Procedure: Efficient Ad internalization via αv integrins requires activation of PI3K, a key cellular signaling molecule. […] Ad mediated gene delivery was analyzed 48 hours post infection.

Compound | inhibition of Ad-mediated gene delivery (cells pretreated 30 min with wortmannin (30 nM) or LY292004 (20 μM) before Ad.RSV.βgal complexed with D or DT, 48 hours post infection) | inhibition at 0.03 µM (Homo sapiens, read-out: inhibition of Ad-mediated gene delivery)
O=c1cc(N2CCOCC2)oc2c(-c3ccccc3)cccc12 [LY294002] | ~50% | 
COC[C@H]1OC(=O)c2coc3c2[C@@]1(C)C1=C(C3=O)[C@@H]2CCC(=O)[C@@]2(C)C[C@H]1OC(C)=O [Wortmannin, wortmannin] |  | ~70%
